The text below walks through data of patent US20020028790A1, “Use of agonists or antagonists of P2 purinoceptors for the prevention glutamate-evoked cytotoxicity” (priority 1995, published 2002).

As usually defined, the IC50 is the concentration needed to halve the response being measured.

Data set [1] concerns cerebellar granule neurons. Briefly: Glutamate-evoked Ca2+ uptake in cerebellar granule cells. The class given is cell-based, rat. As to the method: Glutamate-dependent neurotoxicity is often accompanied also in cerebellar granule neurons with increase in intracellular Ca^2+ via a multistep process. […] Also this value is in accordance with the IC50 found for inhibition of ATP binding, cytotoxicity and aspartate release. The basilen blue-dependent inhibition occurs when Ca^2+ uptake is measured for short (1 min) or for longer times (3, 10, and 25 min). The cronic exposure of granule neurons for 8 days to 100 μM AMPPNP inhibits by 50-70% glutamate-evoked Ca^2+ influx, similarly to the inhibition of cytotoxicity and aspartate release.
(§1) (FIG. 7) Replicate cerebellar granule cultures at 8 DIV were incubated for 1 min in Locke's solution in the presence of 45 Ca^++ (1 μCi/ml), with or without 100 μM glutamate, and were then assessed for Ca^++ influx. (FIG. 8) Replicate cerebellar granule cultures at 8 DIV were incubated for 5 min in Locke's solution, in the presence of [^3H] D-2,3 aspartic acid (1 μCi/ml, final concentration 40 nM) and were then assessed for aspartate release, in the presence or absence of 100 μM glutamate. Data are expressed as means±SEM (n=3).
(§2) Basilen Blue inhibits release of aspartate and uptake of Ca^++ induced by glutamate in cerebellar granule cells. (FIG. 9) Replicate cerebellar granule cultures at 8 DIV were incubated for 5 min in Locke's solution in the presence of [^3H] D-2,3 aspartic acid (1 μCi/ml, final concentration 40 nM). After two washes, the cultures were then incubated for 1 min in Locke's solution with or without 100 μM glutamate and in the presence of different concentrations of basilen blue. The buffer removed from the cultures during this release phase was collected into vials and counted for radioactivity. The asterisk represents the release of aspartate obtained in the simultaneous presence of 100 μM glutamate and 100 μM caffeine. Cells were dissolved in 0.1 M NaOH and protein concentrations were determined by the method of Bradford, with bovine serum albumin as standard. (FIG. 10) Replicate cerebellar granule cultures at 8 DIV were incubated for 1 min in Locke's solution in the presence of 45 Ca^++ (1 μCi/ml), with our without 100 μM glutamate, and in the simultaneous presence of different concentrations of basilen blue. After two washes with ice-cold 154 mM choline chloride, 2 mM EDTA, the cells were lysed in 0.1 M NaOH and aliquots were collected for measuring Ca^++ influx (by radioactive counting) and protein concentration. The asterisk represents the Ca^++ influx obtained in the simultaneous presence of 100 μM glutamate and 100 μM caffeine. Data are expressed as means±SEM (n=3).

Data set [2] has as its system cerebellar granule neurons. Briefly: Glutamate-evoked cytotoxicity in cerebellar granule primary cultures (cell survival by count of intact viable nuclei). The class given is cell-based. The conditions noted are these: for cellular survival / abolition of the cytotoxic action of glutamate: 100 μM compound in the simultaneous presence of 100 μM glutamate (acute exposure); for total neuronal population protected from cell death: incubated for the next 20 hours. The source says: Always according to the present invention, these compounds are used to prevent glutamate-evoked cytotoxicity in the nervous system's cells, particularly in CNS neurons. As a cellular model system for CNS neurons we have adopted postnatal rat cerebellar neurons. These cells, which are among the best characterized primary neuronal cultures, when isolated from postnatal rat cerebellum (Lasher R. S., and Zagon I. S., Brain Res. 41, 428-438, 1972), develop in vitro their mature phenotype as interneurons which use glutamate as a neurotransmitter and furthermore constitute an excellent model system for the study of glutamate-mediated cytotoxicity.
By exposing granule neurons to 100 μM glutamate for 15-30 min is obtained (after 15-20 hours) 80-100% of total cell death. […] The effects of basilen blue on cerebellar granule cell morphology reveal, despite the exposure to glutamate, which otherwise induces complete cell death, apparently healty-looking cell bodies that do bear a dense network of highly branching processes. Adhesion and neurites fasciculation are also preserved by basilen blue.
Basilen Blue prevents cytotoxicity induced by glutamate in cerebellar granule primary cultures: effects of dose-response and modality of addition. Replicate cerebellar granule cultures at 8 DIV were exposed for 25 min to 100 μM glutamate, in the simultaneous presence of different concentrations of basilen blue (FIG. 1). After 20 hours, the cultures were assessed for cultures were assessed for cell survival by direct count of intact viable nuclei. The asterisk represents the % of nuclei obtained after simultaneous addition to the cells of 100 μM glutamate and 100 μM caffeine. In FIG. 2, replicate cerebellar granule cultures at 8 DIV were exposed for 25 min to 100 μM glutamate. At different time after glutamate withdrawl, basilen blue (100 μM) was added to the medium until the cultures, 20 hours later, were assessed for cell survival by direct count of intact viable nuclei. The asterisk represents the % of nuclei obtained after simultaneous addition to the cells of 100 μM glutamate and 100 μM basilen blue. In FIG. 3, replicate cultures were pretreated in the presence of 100 μM basilen blue for different time, before the addition of 100 μM glutamate for 25 min (performed in the absence of basilen blue). After 20 hours the cultures were assessed for cell survival.
The asterisk represents the % of nuclei obtained after simultaneous addition to the cells of 100 μM glutamate and 100 μM basilen blue. Counts represent means±SEM (n=4) and 100% of cell survival represents 1.75−2×10^6 total cells.
METHODS. Approximately 20 hours after exposure of granule cells to glutamate, the culture medium was removed and replaced with 1 ml of a detergent-containing lysing solution (0.5% ethyl hexadecyl dimethyl—ammonium bromide, 0.28% acetic acid, 0.5% Triton X-100, 3 mM NaCl, 2 mM MgCl2, in PBS pH 7.4 diluted 1/10).
After 1-2 minutes, the cells were triturated a few times, providing a uniform uspension of single, intact viable nuclei. The latter were quantified by ounting in a hemacytometer. Broken or damaged nuclei were not included in the counts.
Culturing cerebellar granule cells in the presence of AMPPNP: modulation of glutamate-dependent cell death, Ca^++ uptake and aspartate release. Primary cerebellar granule cultures were prepared and starting at 1 DIV some of time were daily supplemented with 100 μM AMPPNP.(FIG. 6) At 8 DIV, after two washes, some of the cultures were incubated at 20° C. for 25 min with 100 μM glutamate. The following day, they were assessed for cell survival, as previously described.

Data set [3] concerns cerebellar granule neurons. Briefly: Glutamate-induced release of [3H] aspartate from cerebellar granule cells. The class given is cell-based, rat.
From the text: Since D-[^3H] aspartate release has been often used as a measure of the functional state of cerebellar granule neurons cultured in vitro and depolarization- or glutamate-evoked aspartate release is a feature progressively aquired by these cells along with neuronal maturation, we decided to test this parameter to further study the biological effects and possible mechanisms used by basilen blue in the prevention of cell death. We find that basilen blue inhibits glutamate-induced release of [^3H] aspartate with an IC50 of about 10 μM. […] Also a cronic exposure of granule neurons for 8 days to 100 μM AMPPNP inhibits by 70-80% the glutamate-evoked release of [^3H] aspartate.
as §1, §2

For data set [4], the system named is intact cells (granule neurons, [3H] ATP binding). Kind of data set: Binding of [3H] ATP to intact cells. Also on record: species or system rat. As to the method: (§3) Basilen blue inhibits binding of [^3H] ATP to membranes of granule neurons with an IC50 of about 10 μM, that corresponds to the IC50 that prevents glutamate-evoked cytotoxicity. Binding studies with [^3H]

Data set [5] concerns cerebellar granule neurons. Kind of data set: Uptake of [3H] aspartate by cerebellar granule cultures. The conditions noted are these: same basilen blue treatments as for cytotoxicity. Type of data set: cell-based, rat. As to the method:
The effects of basilen blue on protection from cytotoxicity are linear with time and depend on the modality of somministration of the compound. When basilen blue is added to the cells 10 min after glutamate, and then incubated with granule neurons for only 15 min, it protects from cell death 60-70% of the entire neuronal population; if somministered only for the last 5 min of treatment of the cells with glutamate, basilen blue sustains survival of 25-40% of total neurons. When instead it is added 1-2 min or 30 min or 2 hours after exposure of granule neurons to glutamate (and then incubated with the cells for the next 20 hours) basilen blue protects from cell death respectively 55-70%, 30% and 10% of the total neuronal population. When it is added before (not during or after) exposure of granule neurons to glutamate, basilen blue requires a pretreatment of at least 20-25 hours in order to prevent by 70-80% the cytotoxic action of glutamate. Inhibition of aspartate uptake is not obtained as a consequence of these same treatments.
Basilen Blue inhibits binding of ATP to cerebellar granule cell membranes, but to uptake of aspartate. […] After two washes, cells were dissolved in 0.1 M NaOH and counted for incorporated radioactivity by liquid scintillation counting. […] Protein concentrations were determined by the method of Bradford with ovine serum albumin as standard.

For data set [6], the system named is membranes of granule neurons ([3H] ATP binding). Briefly: Binding of [3H] ATP to cerebellar granule cell membranes. The settings on record: 1 h at 4° C, read-out: IC50 for inhibition of binding of [3H] ATP to membranes. Further details: species or system rat. As to the method: as §3
Basilen Blue inhibits binding of ATP to cerebellar granule cell membranes, but to uptake of aspartate. Membranes were prepared from 8 DIV cerebellar granule ells and 20 μg of protein were incubated with [^3H] ATP (0.5 μCi/ml, final concentration […]) (FIG. 4), in the presence of different concentrations of basilen blue, for 1 h at 4° C. Specific binding is shown and counts represent means±SEM (n=3). The asterisk represents the binding performed in the presence of 100 μM caffeine. In FIG. 5, replicate cerebellar granule cultures at 8 DIV were washed wice and incubated for different times in Locke's solution with [^3H] […] After two washes, cells were dissolved in 0.1 M NaOH and counted for incorporated radioactivity by liquid scintillation counting. […] Protein concentrations were determined by the method of Bradford with ovine serum albumin as standard.
METHODS. […] ATP, the samples (1 ml) were vacuum-filtered through Whatman GF/B glass fiber filters and the filters were immediately washed (3×4 s) with 5 ml of 50 mM Tris-HCl (pH 7.4), air dried and assessed for specifically bound radioactivity by liquid scintillation counting.

Where [7] appears, read: chronic exposure for 8 days to 100 μM.

Turning to `Nc1ncnc2c1ncn2C1OC(COP(=O)(O)OP(=O)(O)NP(=O)(O)O)C(O)C1O` (stereo not drawn) [AMPPNP, 5-adenylylimidodiphosphate], the “inhibition of glutamate-evoked Ca2+ influx” value in data set [1] (setting [7]) is reported as 50-70%. Also, the “cellular survival / abolition of the cytotoxic action of glutamate” value in data set [2] is “not effective”. In addition, the “inhibition of glutamate-induced cytotoxicity” value in data set [2] (cells cultured in continuous presence of 100 μM compound from day 1 (not later than day 2) in vitro) is 50-60%. In addition, the “inhibition of glutamate-evoked release of [3H] aspartate” value in data set [3] (setting [7]) was 70-80%.
With `Cn1c(=O)c2c(ncn2C)n(C)c1=O` [Caffeine], the “abolition of the cytotoxic action of glutamate” value in data set [2] (up to 100 μM) is “does not abolish”.
As for `Nc1c(S(=O)(=O)O)cc(Nc2ccc(Nc3nc(Cl)nc(Nc4ccccc4S(=O)(=O)O)n3)c(S(=O)(=O)O)c2)c2c1C(=O)c1ccccc1C2=O` [cibacron blue, Cibacron Blue 3GA], the “prevention of glutamate-evoked cell death (in words)” value in data set [2] is recorded as “effective”.
Basilen Blue E 3G: the “inhibition of [3H] ATP binding to intact cells” value in data set [4] is “as effective”. Further, the “inhibition of aspartate uptake” value in data set [5] is recorded as “not obtained”. In addition, the IC50 is about 10 µM in data set [1] (100 μM glutamate, read-out: IC50 for inhibition of glutamate-evoked Ca2+ uptake); 10 to 20 µM in data set [2] (100 μM glutamate, compound present simultaneously, read-out: IC50 for prevention of glutamate-evoked cell death); about 10 µM in data set [6]; about 10 µM in data set [3] (100 μM glutamate, read-out: IC50 for inhibition of glutamate-induced release of [3H] aspartate). The “extent of inhibition of glutamate-evoked Ca2+ uptake” value in data set [1] (uptake measured for 1, 3, 10 and 25 min) is given as “almost completely abolishes”. The “basal Ca2+ uptake” value in data set [1] (without glutamate) is recorded as “not basal”. The “cellular survival / abolition of the cytotoxic action of glutamate” value in data set [2] is on record as “completely sustains cellular survival”. The “total neuronal population protected from cell death” value in data set [2] (added 1-2 min after exposure to glutamate) is 55-70%; in data set [2] (added 30 min after exposure to glutamate) it was 30%; in data set [2] (added 2 hours after exposure to glutamate), 10%. In data set [2] (added 10 min after glutamate, then incubated with neurons for only 15 min), the “neuronal population protected from cell death” value is on record as 60-70%. Besides, the “adhesion and neurites fasciculation” value in data set [2] (despite exposure to glutamate, 100 μM basilen blue) is recorded as “preserved”. In addition, the “survival of total neurons” value in data set [2] (given only for the last 5 min of glutamate treatment) is on record as 25-40%. Further, the “acute response (rapid swelling of the cell body and loss of brightness)” value in data set [2] (within the first 5 min of treatment with glutamate, basilen blue added) is “prevented”. Moreover, the “extent of inhibition of glutamate-induced [3H] aspartate release” value in data set [3] (release measured for 1, 3, 10, 25 min or in presence of Mg2+) is on record as “almost complete”. Also, in data set [3] (without glutamate), the “basal release of [3H] aspartate” value is on record as “does not affect”.
